From paper PMC9968196, “Synthesis, Characterization, and Biological Evaluation of Meldrum’s Acid Derivatives: Dual Activity and Molecular Docking Study” (Pharmaceuticals, 2023)
≈ marks a conversion by molar mass, not a printed value.

How the values were obtained:
[1] = tested on: Escherichia coli (ATCC 25922); experiment: Antimicrobial activity, broth microdilution MIC with resazurin; format: cell-based; details: ATCC25922, E. coli, 37 °C, 24 h, average of three independent experiments
Experimental: (§1) The following strains of bacteria were used as test organisms in this study: Staphylococcus aureus (ATCC 25923), Bacillus subtilis (ATCC 6633), Bacillus cereus (ATCC 10987), and Escherichia coli (ATCC 25922). All the bacteria used were obtained from the American Type Culture Collection (ATCC). Cultures were stored at 4 °C and subcultured every 15 days. The minimal inhibitory concentration (MIC) was determined by the broth microdilution method using 96-well micro-titer plates. A series of dilutions of the tested compounds was used in the experiment against every microorganism. The starting solutions of tested compounds were obtained by measuring off a certain quantity of the compounds and dissolving it in 5% DMSO. The MIC was determined with resazurin. The inoculated plates were incubated at 37 °C for 24 h. Resazurin is an oxidation–reduction indicator used for the evaluation of microbial growth. It is a blue non-fluorescent dye that becomes pink and fluorescent when reduced to resorufin by oxidoreductases within viable cells. The boundary dilution without any changing in color of resazurin was defined as the MIC for the tested microorganism at a given concentration. As a positive control of growth inhibition, streptomycin was used. A 5% DMSO solution was used as a negative control for the influence of the solvents.

[2] = tested on: human cervical adenocarcinoma HeLa; experiment: Cytotoxicity, MTT assay; format: cell-based; details: for IC50: Homo sapiens, HeLa, 72 h; for selectivity index (SI): HeLa cells versus MRC-5
Experimental: (§2) Cell line cells were obtained from the American Type Culture Collection. Human cervical adenocarcinoma HeLa, human chronic myelogenous leukemia K562, non-small cell lung carcinoma A549, human colon carcinoma LS174, pancreatic carcinoma PaCa-2, and normal human lung fibroblast MRC-5 cell lines were grown in RPMI-1640 medium with 10% fetal bovine serum, L-glutamine, and penicillin–streptomycin solution. Cells were plated into the 96-well cell culture plates. Cells were incubated at 37 °C in CO2 incubator. Adherent cell lines were incubated for 20 h before addition of tested compounds. Two hours before addition of compounds, K562 cells were seeded into 96-well plates. The tested compounds were applied at five different concentrations ranging from 10 to 300 µM for 72 h. Thereafter, the survival of cells was determined by MTT assay in accordance with the protocol established by Mosmann and Ohno and Abe. The solution of MTT was added to blank and cell samples. The plates were incubated for 5 h at 37 °C, and then 10% solution of sodium dodecyl sulfate was added to the wells. The absorbance was measured at 570 nm using Thermo Scientific Multiskan EX plate reader. Three independent experiments were performed.

[3] = tested on: human chronic myelogenous leukemia K562; experiment: Cytotoxicity, MTT assay; format: cell-based; details: 72 h
Experimental: as §2

[4] = tested on: human colon carcinoma LS174; experiment: Cytotoxicity, MTT assay; format: cell-based
Experimental: as §2

[5] = tested on: pancreatic carcinoma PaCa-2; experiment: Cytotoxicity, MTT assay; format: cell-based; details: Homo sapiens, 72 h
Experimental: as §2

[6] = tested on: non-small cell lung carcinoma A549; experiment: Cytotoxicity, MTT assay; format: cell-based, human; details: for IC50: Homo sapiens, A549, 72 h; for selectivity index (SI): A549 cells versus MRC-5
Experimental: as §2

[7] = Cytotoxicity, MTT assay, normal cells; format: cell-based, human; details: human, MRC-5 normal lung fibroblast cells; MRC-5 normal fibroblast; 72 h
Experimental: as §2

[8] = tested on: Bacillus cereus (ATCC 10987); experiment: Antimicrobial activity, broth microdilution MIC with resazurin; format: cell-based; details: ATCC10987, B. cereus, 37 °C, 24 h, average of three independent experiments
Experimental: as §1

[9] = tested on: Bacillus subtilis (ATCC 6633); experiment: as above; format: cell-based; details: ATCC6633, B. subtilis, 37 °C, 24 h, average of three independent experiments
Experimental: as §1

[10] = tested on: Staphylococcus aureus (ATCC 25923); experiment: as above; format: cell-based; details: ATCC25923, S. aureus, 37 °C, 24 h, average of three independent experiments
Experimental: as §1

[11] = tested on: normal human lung fibroblast MRC-5; experiment: Cytotoxicity, MTT assay, normal cells; format: cell-based; details: MRC-5
Experimental: as §2

[12] = design: method as in PMID 34019615, PMID 20000793; details: cited from earlier work
[13] = tested on: Gyrase B of E. Coli; design: method as in PMID 31257079; details: read-out: inhibitory activity IC50; cited from earlier work

Compound | MIC [1] | IC50 [2] | IC50 [3] | IC50 ([4]; Homo sapiens, LS174, 72 h) | IC50 [5] | IC50 [6] | IC50 at 72 h [7] | MIC [8] | MIC [9] | MIC [10] | selectivity index (SI) [2] | selectivity index (SI) [6] | toxicity towards MRC-5 cell lines (in words) [11] | IC50 ([4]; 72 h) | pKa [12] | IC50 [13]
COc1cc(C=C2C(=O)OC(C)(C)OC2=O)cc([N+](=O)[O-])c1O [3a, 5-(4′-hydroxy-3′-methoxy-5′-nitrobenzylidene)-2,2-dimethyl-1,3-dioxane-4,6-dione] | 115 µM (≈ 37.3 µg/mL) | 126 ± 1.45 µM | 151 ± 3.47 µM | > 200 µM | > 200 µM | > 200 µM | > 200 µM | – | – | – | – | – | – | – | – | –
CCC(=O)Oc1ccc(C=C2C(=O)OC(C)(C)OC2=O)cc1OC [3b, 2′-methoxy-4′-((2,2-dimethyl-4,6-dioxo-1,3-dioxan-5-ylidene)methyl)phenyl propionate] | 89.5 µM (≈ 29.9 µg/mL) | 102 ± 2.14 µM | 74.5 ± 1.73 µM | 105 ± 4.62 µM | 153 ± 4.29 µM | 41.2 ± 1.74 µM | > 200 µM | 174 µM (≈ 58.2 µg/mL) | 175 µM (≈ 58.6 µg/mL) | 210 µM (≈ 70.4 µg/mL) | – | – | – | – | – | –
COc1cc(C=C2C(=O)OC(C)(C)OC2=O)ccc1OC(=O)C1CC1 [3c, 2′-methoxy-4′-((2,2-dimethyl-4,6-dioxo-1,3-dioxan-5-ylidene)methyl)phenyl cyclopropanecarboxylate] | 85.1 µM (≈ 29.5 µg/mL) | 84.6 ± 1.84 µM | 70.2 ± 1.68 µM | 99.6 ± 1.44 µM | 172 ± 5.25 µM | 45.7 ± 1.65 µM | > 200 µM | 172 µM (≈ 59.4 µg/mL) | 180 µM (≈ 62.5 µg/mL) | 206 µM (≈ 71.3 µg/mL) | – | – | – | – | – | –
COc1ccc(C(=O)Oc2ccc(C=C3C(=O)OC(C)(C)OC3=O)cc2OC)cc1 [3d, 2′-methoxy-4′-((2,2-dimethyl-4,6-dioxo-1,3-dioxan-5-ylidene)methyl)phenyl 4-methoxybenzoate] | 74.8 µM (≈ 30.8 µg/mL) | 94.5 ± 3.15 µM | 105.1 ± 0.92 µM | 118.9 ± 0.95 µM | 145 ± 2.92 µM | 36.2 ± 0.39 µM | > 200 µM | 168 µM (≈ 69.4 µg/mL) | 169 µM (≈ 69.7 µg/mL) | 200 µM (≈ 82.3 µg/mL) | – | – | – | – | – | –
COc1cc(C=C2C(=O)OC(C)(C)OC2=O)ccc1OCCOCCOCCO [3e, 5-(4′-(2″-(2′″-(2″″-hydroxyethoxy)ethoxy)ethoxy)-3′-methoxybenzylidene)-2,2-dimethyl-1,3-dioxane-4,6-dione] | 38.1 µM (≈ 15.6 µg/mL) | 37.3 ± 1.2 µM | 80.5 ± 2.36 µM | 38.1 ± 0.41 µM | 182 ± 3.94 µM | 25.9 ± 0.46 µM | 111 ± 2.19 µM | 80.5 µM (≈ 33 µg/mL) | 133 µM (≈ 54.6 µg/mL) | 145 µM (≈ 59.6 µg/mL) | 4.0 | 2.6 | – | – | – | –
CCCCCCOc1ccc(C=C2C(=O)OC(C)(C)OC2=O)cc1OC [3f, 5-(4′-hexyloxy-3′-methoxybenzylidene)-2,2-dimethyl-1,3-dioxane-4,6-dione] | 37.5 µM (≈ 13.6 µg/mL) | 63.5 ± 0.45 µM | 71.9 ± 1.65 µM | 45.3 ± 0.58 µM | 110 ± 1.75 µM | 39.6 ± 0.74 µM | 144 ± 2.84 µM | 42.3 µM (≈ 15.3 µg/mL) | 48.3 µM (≈ 17.5 µg/mL) | 73.9 µM (≈ 26.8 µg/mL) | – | – | – | – | – | –
CCCCCCCOc1ccc(C=C2C(=O)OC(C)(C)OC2=O)cc1OC [3g, 5-(4′-heptyloxy-3′-methoxybenzylidene)-2,2-dimethyl-1,3-dioxane-4,6-dione] | 36.1 µM (≈ 13.6 µg/mL) | – | 69.5 ± 1.37 µM | 47.1 ± 1.69 µM | 94.2 ± 1.09 µM | 35.1 ± 0.27 µM | 139 ± 3.07 µM | 37.5 µM (≈ 14.1 µg/mL) | 45.2 µM (≈ 17 µg/mL) | 60.4 µM (≈ 22.7 µg/mL) | – | – | – | – | – | –
CCCCCCCCOc1ccc(C=C2C(=O)OC(C)(C)OC2=O)cc1OC [3h, 5-(3′-methoxy-4′-octyloxybenzylidene)-2,2-dimethyl-1,3-dioxane-4,6-dione] | 14.7 µM (≈ 5.74 µg/mL) | 18.2 ± 0.11 µM | 73.5 ± 1.43 µM | 36.5 ± 0.24 µM | 90.5 ± 0.83 µM | 27.4 ± 0.78 µM | 72.8 ± 0.77 µM | 64.8 µM (≈ 25.3 µg/mL) | 31.5 µM (≈ 12.3 µg/mL) | 54.2 µM (≈ 21.2 µg/mL) | 2.9 | 4.3 | moderate toxicity | – | – | –
CCCCCCCCCCOc1ccc(C=C2C(=O)OC(C)(C)OC2=O)cc1OC [3i, 5-(4′-decyloxy-3′-methoxybenzylidene)-2,2-dimethyl-1,3-dioxane-4,6-dione] | 12.4 µM (≈ 5.19 µg/mL) | 15.7 ± 0.28 µM | 63.7 ± 2.49 µM | 20.8 µM | 58.2 ± 0.74 µM | 21.8 ± 0.91 µM | 74.6 ± 1.46 µM | 41.5 µM (≈ 17.4 µg/mL) | 29.5 µM (≈ 12.3 µg/mL) | 50.9 µM (≈ 21.3 µg/mL) | 4.8 | – | moderate toxicity | 30.5 ± 0.35 µM | – | –
CC1(C)OC(=O)CC(=O)O1 [Meldrum’s acid] | – | – | – | – | – | – | – | – | – | – | – | – | – | – | 4.9 | –
CCNC(=O)Nc1cc(-n2cc(Br)cn2)c(C(=O)Nc2cccnc2)cn1 [P3C, 4-(4-bromo-1H-pyrazol-1-yl)-6-[(ethylcarbamoyl)amino]-N-(pyridine-3-yl)pyridine-3-carboxamide] | – | – | – | – | – | – | – | – | – | – | – | – | – | – | – | 0.037 µM
[H]/N=C(/N)N[C@H]1[C@H](O)[C@@H](O)[C@H](O[C@@H]2O[C@@H](C)[C@](O)(C=O)[C@H]2O[C@@H]2O[C@@H](CO)[C@H](O)[C@@H](O)[C@@H]2NC)[C@@H](N/C(N)=N\[H])[C@@H]1O [streptomycin, reference compound] | 0.01 µM (≈ 0.00582 µg/mL) | – | – | – | – | – | – | 0.003 µM (≈ 0.00174 µg/mL) | 0.003 µM (≈ 0.00174 µg/mL) | 0.005 µM (≈ 0.00291 µg/mL) | – | – | – | – | – | –
